Test results taken from patent US4845233A, “Imidazolin-2-ones” (IPRX, Inc., priority 1987, dated 1989).

Assays:
[1] = in vitro transdermal penetration of indomethacin from petrolatum ointment through shed snake skin, vertical diffusion cell; assay type: in vitro ADME, Elaphe obsoleta (black rat snake); details: for Relative Penetration: 5% enhancer in ointment, indomethacin, slope relative to Azone = 100%
Method: Ointments were prepared by mixing 1% indomethacin, 5% dermal penetration enhancer and 94% petrolatum at 55°-60° C. to give a homogeneous dispersion of indomethacin. In the cases where the enhancers are liquid the indomethacin and the enhancer were first mixed well and then followed by the incorporation of the petrolatum. The mixture was melted at 55°-60° C. and stirred until a homogeneous ointment was obtained. For low melting enhancers, the enhancer and the indomethacin were melted together and mixed in a water-bath followed by the incorporation of petrolatum. For high melting enhancers, it was necessary to mix the components in an agate mortar.
A whole shed snake skin from the molt of adult Elaphe obsoleta (black rat snake) was obtained from the Animal Care Unit of the University of Kansas. Only the dorsal side of the shed snake skin was used for in vitro penetration studies. The head and tail sections of the snake skin was removed and the remainder of the skin was cut randomly into sections of approximately 2 inches by 2 inches. Each piece of snake skin was hydrated overnight by first soaking the skin in water (about 5 to 10 min) until it could be stretched and then it was placed on a plastic pan which held some water. The pan was floated on a water-bath of 32° C. overnight.
Approximately 30 mg of ointment as prepared as described in Example 23 was smeared evenly on an area of the 2"×2" snake skin. The ointment was smeared into an essentially circular area approximately 1.77 cm^2 and having a diameter of approximately 15 mm. The snake skin was then mounted on top of the receptor cell of a verticle diffusion cell assembly in which a small magnetic bar was inserted and filled with an isotonic buffer. A rubber o-ring was placed on top of the skin followed by the placement of the donor cell. The two cells were clamped together and transferred to a water-bath (32° C.) which had several magnetic stirrers placed underneath to stir the contents of the diffusion cells. Samples from the cells were withdrawn periodically by gravity by inputing fresh isotonic buffer into the cells inlets. The first five drops were discarded and the following four drops were collected for analysis. These nine drops of sample solution were approximately equivalent to about 0.20 ml.
The samples were analyzed for the concentration of indomethacin using either a Spectroflow 783 programmable absorbance detector or a Perkin-Elmer ISS-100 HPLC apparatus with a Perkin-Elmer LC9 UV spectrophotometric detector and a Perkin-Elmer ISS-100 automatic sampler with the detection wavelength set at 260 nm. A reverse phase column, RP-8 Spheri-5, 4.6×100 mm and a guard tube OD-GU, purchased from Brownlee Labs, were used in conjunction with the HPLC system. The flow rate was 1.0 ml/min and the solvent system was a mixture of acetonitrile (50%) and a 0.01M phosphate buffer (pH 3.0) (50%).
The concentration in each sample was interpreted from a standard curve which was obtained by plotting the peak areas obtained from HPL chromatograms versus four different standard solutions of indomethacin. The standard curves were linear over a range of concentrations from 2.5 to 10 ug/ml. The receptor cell volume was calibrated by weighing the amount of water in the cell. The first sample needs no concentration correction. However, the concentration in the subsequent samples can be corrected by the following equation [formula] where xi is a member of microgram of indomethacin in the i^th sample. Also, the volume withdrawn for each sampling is about 0.20 ml. Yi is the concentration correction for i-1 sample.
The foregoing results were obtained by using 5% of the transdermal penetration enhancer in the ointment. […] Thus, Table III primarily reflects the transdermal penetration data of […] from ointments of 94% petrolatum and 5% enhancer. In Run No. 14, Azone was selected as the standard for comparison since it is claimed to be an excellent enhancer although it is too toxic. […]

Swiss white mice [2] = assay: Chronic Toxicity Study, subcutaneous daily for 14 days; assay type: in vivo; details: 1000 mg/Kg daily for 14 days
Method: The compound identified in Example 25 and represented as Run No. 3 in Table III, was also evaluated for chronic toxicity. Six Swiss white mice were injected subcutaneously at a dose of 1000 mg/Kg daily for 14 days. A sample dispersion of 400 mg/4.0 ml was prepared by dispersing the soft enhancer in a powder form in a 2% Tween 80 saline solution. The homogeneous dispersion was obtained by vortexing the material in a conical flask in which a plastic ball was placed. Sample dispersion was prepared alternative day in order to avoid serious contamination. Prior to injection the dispersion was shaken and withdrawn into a sterile graduated 1 cc TB syring (readable to 0.05 ml). Sterile hypodermic needles (25.4 mm) were required for injecting the dispersion. The control mice were injected an equivalent volume of the 2% Tween 80 suspension in saline. The suspension was prepared on an alternative day to avoid serious contamination. […] Two mice injected with the sample and one from the control were sacrificed and dissected for examination. For the control mouse, there was no obvious damage to the tissue and the internal organs. […] The mice were maintained for a period of 39 days during which time one mouse was sacrificed to check for the presence of the yellowish material.

[3] = in vitro transdermal penetration of indomethacin from petrolatum ointment through shed snake skin, vertical diffusion cell; assay type: in vitro ADME, Elaphe obsoleta (black rat snake); details: * 10% enhancer in ointment, slope relative to Azone = 100%
Swiss white mice [4] = details: mouse, in vivo, sc, 1000 mg/kg
[5] = intraperitoneal; cited from earlier work

With CCCCCCCCCCCCCCOC(=O)OCn1ccn(C)c1=O [Run No. 10] the “Relative Penetration” value [1] was 10%.

With CCCCCCCCCCCCCC(=O)OC(C)n1ccn(C)c1=O (centres unmarked) [compound 3] the “damage to internal organs (dissection)” value (Swiss white mice [2]) was “no obvious damage to the internal organs was seen”, the “injection site finding (dissection)” value (Swiss white mice [2]) was “a substantial amount of yellowish material was found on the injection site” and the “yellowish material at injection site at follow-up” value (Swiss white mice [2]; after 39 days) was “The yellowish material disappeared after 39 days”. For the same compound, the “Relative Penetration” value [3] was 50%, the “Relative Penetration” value [1] was 80-100% and the “damage to internal organs and tissue at the injection site (dissection)” value (Swiss white mice [4]) was “no obvious damage to the internal organs and tissue at the injection site”.

In the case of CCCCCCCCCCCCOC(=O)OCn1ccn(C)c1=O [compound 8], the “Relative Penetration” value [1] is reported as 50%.

With CCCCCCCCCCCC(=O)OCCCn1ccn(C)c1=O [compound 5] the “Relative Penetration” value [1] was 100%.

For CCCCCCCCCCCCN1CCCCCC1=O [Azone, 1-Dodecylazacycloheptane-2-One, reference compound], the “Relative Penetration” value [1] is given as 100% and the LD50 [5] is given as “approximately 232 mg/kg”.

In the case of CCCCCCCCCCCC(=O)OC(C)Cn1ccn(C)c1=O (centres unmarked) [compound 1], the “Relative Penetration” value [1] is reported as 120-200%.

In the case of CCCCCCCCCCCC(=O)OCn1ccn(C)c1=O [Run No. 12, 1-Methyl-4-imidazolin-2-one-3-methylenedodecanoate], the “Relative Penetration” value [3] is reported as 20% and the “Relative Penetration” value [1] is reported as 10%.

In the case of CCCCCCCCCCCCCC(=O)OC(C)Cn1ccn(C)c1=O (centres unmarked) [compound 2], the “Relative Penetration” value [1] is reported as 70%.

With CCCCCCCCCCCC(=O)OCCn1ccn(C)c1=O [compound 6] the “Relative Penetration” value [1] was 60%.

For CCCCCCCCCCOC(=O)OCn1ccn(C)c1=O [Run No. 9], the “Relative Penetration” value [1] was 15%.

For CCCCCCCCCCCCCC(=O)OC(C)n1ccn(CC)c1=O (stereo not drawn) [Run No. 7, 1-ethyl-4-imidazolin-2-one-3-α-ethyltetradecanoate], the “Relative Penetration” value [1] was 50%.

In the case of CCCCCCCCCC(=O)OCn1ccn(C)c1=O [compound 11], the “Relative Penetration” value [1] is reported as 10%.

For “1-Methyl-4-imidazolin-2-one-3-propylenedodecanoate [Run No. 5]”, the “penetration enhancement of indomethacin versus Azone (FIG. 1)” value ([1]; within the first 24 hours) was “well above that of the standard Azone”.

For CCCCCCCCCCCC(=O)OC(C)n1ccn(C)c1=O (centres unmarked) [compound 4], the “Relative Penetration” value [3] was 40% and the “Relative Penetration” value [1] was 60%.

With CCCCCCCCCC(=O)OC(C)Cn1ccn(C)c1=O (centres unmarked) [compound 13] the “Relative Penetration” value [1] was 50%.
